Key:
in vivo [1] = settings: CD-1, mouse, iv, 1 mg/kg
in vitro = settings: dog, MDCK
in vivo [2] = settings: CD-1, mouse, plasma, po, 5 mg/kg
in vivo [3] = settings: CD-1, mouse, po, 5 mg/kg
in vivo [4] = settings: nude, mouse, po, 150 mg/kg
in vivo [5] = settings: nude, mouse, po, 100 mg/kg
in vivo [6] = settings: nude, mouse, po, 30 mg/kg
in vivo [7] = settings: nude, mouse, po, 150 mg/kg; remark: listed apart in the source
in vivo [8] = settings: nude, mouse, iv, 1 mg/kg
in vivo [9] = settings: cynomolgus monkey, po, 5 mg/kg
in vivo [10] = settings: nude, mouse, po, 5 mg/kg
in vivo [11] = settings: nude, mouse, po, 5 mg/kg; remark: listed apart in the source
in vivo [12] = settings: nude, mouse, plasma, po, 30 mg/kg
in vivo [13] = settings: dog, po, 5 mg/kg
in vivo [14] = settings: cynomolgus monkey, po, 5 mg/kg; remark: listed apart in the source
in vivo [15] = settings: nude, mouse, po, 100 mg/kg; remark: listed apart in the source
in vivo [16] = settings: rat, po, 5 mg/kg
in vivo [17] = settings: nude, mouse, po, 150 mg/kg; remark: listed apart in the source
in vivo [18] = settings: rat, iv, 1 mg/kg
in vivo [19] = settings: dog, po, 5 mg/kg; remark: listed apart in the source
in vivo [20] = settings: rat, plasma, po, 5 mg/kg
in vivo [21] = settings: nude, mouse, plasma, po, 100 mg/kg
in vivo [22] = settings: cynomolgus monkey, po, 5 mg/kg; remark: listed apart in the source
in vivo [23] = settings: nude, mouse, po, 100 mg/kg; remark: listed apart in the source
in vivo [24] = settings: dog, plasma, po, 5 mg/kg
in vivo [25] = settings: rat, po, 5 mg/kg; remark: listed apart in the source
in vivo [26] = settings: cynomolgus monkey, iv, 2 mg/kg
in vivo [27] = settings: nude, mouse, po, 30 mg/kg; remark: listed apart in the source
in vivo [28] = settings: dog, iv, 2 mg/kg
in vivo [29] = settings: nude, mouse, plasma, po, 5 mg/kg
in vivo [30] = settings: rat, po, 5 mg/kg; remark: listed apart in the source
in vivo [31] = settings: cynomolgus monkey, plasma, po, 5 mg/kg
in vivo [32] = settings: nude, mouse, po, 5 mg/kg; remark: listed apart in the source
in vivo [33] = settings: dog, po, 5 mg/kg; remark: listed apart in the source
in vivo [34] = settings: nude, mouse, plasma, po, 150 mg/kg

Compound: O=c1cc(-c2ccnc(NC3CCOCC3)n2)ccn1[C@H](CO)c1cccc(F)c1
- clearance (in vivo [1]): 2.34 L/h/kg
- Papp A→B (in vitro): 55 nm/s
- AUC (in vivo [2]): 1.72 µM·h
- bioavailability (in vivo [3]): 36%

Compound: O=c1cc(-c2ccnc(NC3CCOCC3)n2)ccn1[C@H](CO)c1cccc(Cl)c1
- clearance (in vivo [1]): 6.84 L/h/kg
- Papp A→B (in vitro): 85 nm/s
- AUC (in vivo [2]): 0.59 µM·h
- bioavailability (in vivo [3]): 38%

Compound: O=c1cc(-c2ccnc(NC3CCOCC3)n2)ccn1[C@H](CO)c1ccc(Cl)c(F)c1
- Cmax (in vivo [4]): 67.7 µM
- Cmax (in vivo [5]): 38.9 µM
- half-life (in vivo [6]): 2.33 h
- bioavailability (in vivo [7]): 127%
- clearance (in vivo [8]): 2.4 L/h/kg
- Cmax (in vivo [9]): 0.98 µM
- clearance (in vivo [1]): 1.98 L/h/kg
- Papp A→B (in vitro): 113 nm/s
- Cmax (in vivo [10]): 3.12 µM
- half-life (in vivo [11]): 3.52 h
- AUC (in vivo [12]): 46.8 µM·h
- AUC (in vivo [2]): 3.05 µM·h
- half-life (in vivo [13]): 1.55 h
- bioavailability (in vivo [14]): 22%
- half-life (in vivo [15]): 1.71 h
- half-life (in vivo [16]): 1.16 h
- half-life (in vivo [17]): 1.97 h
- clearance (in vivo [18]): 2.34 L/h/kg
- Cmax (in vivo [19]): 2.91 µM
- AUC (in vivo [20]): 2.15 µM·h
- AUC (in vivo [21]): 129 µM·h
- half-life (in vivo [22]): 2.39 h
- bioavailability (in vivo [23]): 139%
- AUC (in vivo [24]): 4.87 µM·h
- bioavailability (in vivo [25]): 44%
- clearance (in vivo [26]): 0.72 L/h/kg
- Cmax (in vivo [27]): 20.2 µM
- clearance (in vivo [28]): 1.08 L/h/kg
- AUC (in vivo [29]): 5.4 µM·h
- Cmax (in vivo [30]): 1.49 µM
- AUC (in vivo [31]): 3.3 µM·h
- bioavailability (in vivo [32]): 139%
- bioavailability (in vivo [3]): 66%
- bioavailability (in vivo [33]): 46%
- AUC (in vivo [34]): 175 µM·h

Compound: O=c1cc(-c2ccnc(NC3CCOCC3)n2)ccn1[C@H](CO)c1ccc(F)c(Cl)c1
- clearance (in vivo [1]): 3.78 L/h/kg
- Papp A→B (in vitro): 46 nm/s
- AUC (in vivo [2]): 2.18 µM·h
- bioavailability (in vivo [3]): 76%
